Assay results as given in PMC6278354, “Investigation of New Orexin 2 Receptor Modulators Using In Silico and In Vitro Methods” (Molecules, 2018).
Like-named read-outs stand apart in the source and are kept apart here.

Legend:
MTT cytotoxicity assay = type: cell-based; conditions: Chinese hamster
Experimental: (§1) Adherent epithelial CHO-K1 cell line (Chinese hamster ovary, ATCC, #CCL-61, Manassas, VA, USA) was grown in Ham’s F12 Nutrient Mixture supplemented with 10% heat-inactivated FBS and antibiotics 1% penicillin (10,000 U/mL)/streptomycin (10,000 µg/mL) at 37 °C, 95% humidity and under 5% CO2.
(§2) The cytotoxic effect of the studied compounds was assessed using standard MTT (3-[4–dimethylthiazol-2-yl]-2,5-diphenyltetrazolium bromide) assay on the CHO-K1 cell line. […] Cells were seeded in 96-well plates and exposed to the tested compounds in the medium (100 µL) for 24 h at 37 °C, 95% humidity, and in an atmosphere of 5% CO2. Subsequently, this medium was replaced by the medium containing MTT (10 µM) and incubated for another 3–4 h. After that, the medium with MTT was removed and formazan crystals were dissolved by the addition of 100 µL DMSO. Viability of the cells was estimated spectrophotometrically by the amount of produced formazan. The absorbance was measured at 570 nm, with 650 nm as a reference wavelength on a Synergy HT reader (Biotek, USA). Results were expressed as IC50 from the control-subtracted triplicates (in comparison with untreated control) using non-linear regression (four parameters) in GraphPad Prism 7.03 (GraphPad Software Inc., CA, USA).

[1] = PAMPA assay for prediction of BBB penetration (polar brain lipid); conditions: for CNS Predicted Availability: class from PAMPA Pe; for Papp at 30 µM: PAMPA, pH 7.4; for BBB permeation via passive diffusion, in words: from PAMPA Pe
in vitro = conditions: PAMPA, pH 7.4
human OX2R [2] = molecular target: T1, human OX2R (Homo sapiens, UniProt O43614); experiment: OX2R calcium assay, antagonist mode against orexin A (Fluo-3, CHO-K1 cells stably expressing human OX2R); type: cell-based; conditions: for IC50: 0.1 μM orexin A as agonist, mean ± SEM, n = 3, read-out: IC50 antagonistic effect in orexin A-OX2R interaction; for antagonistic screening: reduction of orexin A response signal: ligand 10 μM, orexin A 100 nM, data not shown
T1 construct: host or cells: CHO-K1
T1 sequence (O43614 1-444): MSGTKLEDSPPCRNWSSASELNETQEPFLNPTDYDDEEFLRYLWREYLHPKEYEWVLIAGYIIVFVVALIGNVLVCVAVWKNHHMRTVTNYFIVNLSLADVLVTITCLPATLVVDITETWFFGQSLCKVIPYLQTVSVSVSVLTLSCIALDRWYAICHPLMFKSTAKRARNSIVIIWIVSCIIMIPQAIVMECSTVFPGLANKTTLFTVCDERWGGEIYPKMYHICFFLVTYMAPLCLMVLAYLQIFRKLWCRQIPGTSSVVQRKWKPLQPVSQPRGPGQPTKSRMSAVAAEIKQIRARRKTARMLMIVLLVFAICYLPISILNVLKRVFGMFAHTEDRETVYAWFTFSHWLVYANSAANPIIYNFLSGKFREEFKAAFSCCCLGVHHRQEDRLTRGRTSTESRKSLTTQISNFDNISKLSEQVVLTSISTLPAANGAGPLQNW

human OX2R [3] = molecular target: T1, human OX2R; experiment: OX2R calcium assay, agonist mode (Fluo-3, CHO-K1 cells stably expressing human OX2R); type: cell-based; conditions: for agonistic effect in screening: 10 μM ligand; for agonistic effect at higher concentrations: higher concentrations than 10 μM, data not shown
CHO-K1 cell line = experiment: MTT cytotoxicity assay; type: cell-based; conditions: Chinese hamster, 24 h
Experimental: as §1, §2

[4] = PAMPA, pH 7.4
[5] = CHO-K1 cells, MTT, 24 h exposure, read-out: Cytotoxicity CHO-K1 IC50 ± SEM

Row | Structure (SMILES) | CNS Predicted Availability [1] | IC50 (human OX2R [2]) [µM] | antagonistic screening: reduction of orexin A response signal (human OX2R [2]) | IC50 at 24 h (MTT cytotoxicity assay; [5]) [µM] | Papp at 30 µM [1] [×10⁻⁶ cm/s] | other results
1 | CC1CCCC(=O)CCC/C=C/c2cc3c(c(O)c2C(=O)O1)C(c1cc2ccccc2nc1O)CC(=O)O3 (stereo not shown) [Ligand L5, (12E)-22-hydroxy-20-(2-hydroxyquinolin-3-yl)-4-methyl-3,17-dioxatricyclo[12.8.0.0^16,21]docosa-1(14),12,15,21-tetraene-2,8,18-trione] | CNS + (CNS + (high BBB permeation predicted): Pe (×10^−6 cm s^−1) > 4.0) |  |  |  |  | IC50 at 24 h (MTT cytotoxicity assay; MTT, 24 h exposure, read-out: Cytotoxicity CHO-K1 IC50 ± SEM): 59 ± 6.41 µM; Papp (in vitro): 12 ± 2.5 ×10⁻⁶ cm/s
2 | O=C(c1cc(-c2ccco2)nc2ccccc12)N1CCN(C(=O)C2COc3ccccc3O2)CC1 (stereo not shown) [Ligand L3, 4-[4-(2,3-dihydro-1,4-benzodioxine-2-carbonyl)piperazine-1-carbonyl]-2-(furan-2-yl)quinoline] | CNS + (CNS + (high BBB permeation predicted): Pe (×10^−6 cm s^−1) > 4.0) | 8.9 ± 0.43 | significantly reduce the signal of orexin A response | 279 ± 36.6 | 17.9 ± 2.2 | 
3 | CNC(=C[N+](=O)[O-])NCCSCc1ccc(CN(C)C)o1 [Ranitidine, reference compound] | CNS − (CNS − (low BBB permeation predicted): Pe (×10^−6 cm s^−1) < 2.0) |  |  |  |  | Papp (in vitro): 0.04 ± 0.02 ×10⁻⁶ cm/s
4 | Cn1c(=O)c2c(-c3ccccc3)n3c(c2n(C)c1=O)C(c1coc2ccccc2c1=O)OCC3 (stereo not shown) [Ligand L6, 3,5-dimethyl-13-(4-oxo-4H-chromen-3-yl)-8-phenyl-12-oxa-3,5,9-triazatricyclo[7.4.0.0^2,7]trideca-1,7-diene-4,6-dione] | CNS + (CNS + (high BBB permeation predicted): Pe (×10^−6 cm s^−1) > 4.0) | 12.2 ± 3.1 | significantly reduce the signal of orexin A response | > 100 | 17.6 ± 6.4 | agonistic effect in screening (human OX2R [3]): subtle agonistic effect; agonistic effect at higher concentrations (human OX2R [3]): neither an agonistic nor dose-response effect
5 | O=C(c1cc(-c2ccco2)nc2ccccc12)N1CCN(c2ccc(=O)n(-c3ccc(F)cc3)n2)CC1 [Ligand L4, 2-(4-fluorophenyl)-6-{4-[2-(furan-2-yl)quinoline-4-carbonyl]piperazin-1-yl}-2,3-dihydropyridazin-3-one] | CNS + (CNS + (high BBB permeation predicted): Pe (×10^−6 cm s^−1) > 4.0) | 2.2 ± 0.47 | significantly reduce the signal of orexin A response | 99.8 ± 10.7 | 18.3 ± 0.1 | 
7 | O=C1CC(C(=O)Nc2cccc(-c3ccc4c(c3)CCO4)c2)c2ccccc2N1 (stereo not shown) [Ligand L10, N-[3-(2,3-dihydro-1-benzofuran-5-yl)phenyl]-2-oxo-1,2,3,4-tetrahydroquinoline-4-carboxamide] | CNS + (CNS + (high BBB permeation predicted): Pe (×10^−6 cm s^−1) > 4.0) | 27.8 ± 0.5 | significantly reduce the signal of orexin A response | 53.9 ± 5.03 | 18.9 ± 2.4 | 
8 | O=C(Cn1nc(-c2ccc(F)cc2)oc1=O)N1CCCC1c1ccc2c(c1)OCCCO2 (stereo not shown) [Ligand L9, 3-{2-[2-(3,4-dihydro-2H-1,5-benzodioxepin-7-yl)pyrrolidin-1-yl]-2-oxoethyl}-5-(4-fluorophenyl)-2,3-dihydro-1,3,4-oxadiazol-2-one] | CNS + (CNS + (high BBB permeation predicted): Pe (×10^−6 cm s^−1) > 4.0) |  |  | 144 ± 11.1 | 32.3 ± 1.5 | agonistic effect in screening (human OX2R [3]): subtle agonistic effect; agonistic effect at higher concentrations (human OX2R [3]): neither an agonistic nor dose-response effect
9 | O=C(c1cnn(-c2ncc3c(n2)-c2ccccc2CC3)c1C1CC1)N1CCN(Cc2ccccc2)CC1 [Ligand L1, 1-(1-{5H,6H-benzo[h]quinazolin-2-yl}-5-cyclopropyl-1H-pyrazole-4-carbonyl)-4-benzylpiperazine] | CNS + (CNS + (high BBB permeation predicted): Pe (×10^−6 cm s^−1) > 4.0) |  |  | 78.8 ± 6.88 | 10.2 ± 0.9 | 
10 | O=C(Nc1ccc2n(c1=O)C[C@H]1C[C@@H]2CN(C(=O)c2ccccn2)C1)c1ccccc1 [Ligand L8, N-[(1R,9S)-6-oxo-11-(pyridine-2-carbonyl)-7,11-diazatricyclo[7.3.1.0^2,7]trideca-2,4-dien-5-yl]benzamide] | CNS +/− (CNS +/− (BBB permeation uncertain): Pe (×10^−6 cm s^−1) from 4.0 to 2.0) |  |  |  |  | IC50 (CHO-K1 cell line): ~700 µM; IC50 at 24 h (MTT cytotoxicity assay; Cytotoxicity CHO-K1 IC50 ± SEM): > 700 µM; BBB permeation via passive diffusion, in words [1]: uncertain permeation through the BBB; Pe ± SEM [4]: 2.0–4.0; Papp at 30 µM (in vitro): 4 ± 0.3 ×10⁻⁶ cm/s
11 | O=C1CN(C(=O)CN2CCN(S(=O)(=O)c3ccc4ccccc4c3)CC2)c2ccccc2N1 [Ligand L2, 4-{2-[4-(naphthalene-2-sulfonyl)piperazin-1-yl]acetyl}-1,2,3,4-tetrahydroquinoxalin-2-one] | CNS + (CNS + (high BBB permeation predicted): Pe (×10^−6 cm s^−1) > 4.0) |  |  | 165 ± 5.36 | 31.6 ± 3.4 | 
12 | Cc1ccccc1Cn1cc(/C=C2\C(=N)N3N=C(CC(=O)N4CCCC4)SC3=NC2=O)c2ccccc21 [Ligand L7, (6E)-5-imino-6-({1-[(2-methylphenyl)methyl]-1H-indol-3-yl}methylidene)-2-[2-oxo-2-(pyrrolidin-1-yl)ethyl]-5H,6H,7H-[1,3,4]thiadiazolo[3,2-a]pyrimidin-7-one] | CNS +/− (CNS +/− (BBB permeation uncertain): Pe (×10^−6 cm s^−1) from 4.0 to 2.0) | 25 ± 2.6 | significantly reduce the signal of orexin A response | 61.8 ± 3.74 | 3.37 ± 2.1 | Pe ± SEM ([1]; PAMPA-BBB, PBS pH 7.4, 30 µM donor, at least three measurements): 2.0–4.0 ×10^−6 cm s^−1; BBB permeation via passive diffusion, in words [1]: uncertain permeation through the BBB
13 | CCn1nnc2cc(C(=O)Nc3ccc4[nH]c(-c5cc(F)ccc5F)nc4c3)ccc21 [Ligand L11, N-[2-(2,5-difluorophenyl)-1H-1,3-benzodiazol-5-yl]-1-ethyl-1H-1,2,3-benzotriazole-5-carboxamide] |  |  |  | 28.3 ± 4.07 |  | agonistic effect in screening (human OX2R [3]): subtle agonistic effect; agonistic effect at higher concentrations (human OX2R [3]): neither an agonistic nor dose-response effect
